Key:
[1] = Oral bioavailability in female minipig at 3 mg/kg by LC-MS/MS analysis; type: ADME, organism-based, Sus scrofa domesticus; conditions: pig, in vivo
Cytochrome P450 3A4 = Cytochrome P450 3A4 (Homo sapiens, UniProt P08684); assay: Inhibition of CYP3A4 (unknown origin); type: ADME
[2] = Volume of distribution at steady state in mouse plasma at 1 mg/kg,iv; type: ADME, organism-based; conditions: read-out: Vdss
[3] = AUC (0-infinity) in mouse plasma at 1 mg/kg,iv; type: ADME, organism-based; parameters: dose 1 mg/kg, route iv; conditions: in vivo
[4] = AUC (0-infinity) in rat plasma at 3 mg/kg,po; type: ADME, organism-based; parameters: dose 3 mg/kg, route po; conditions: plasma
[5] = AUC (0-infinity) in mouse plasma at 3 mg/kg,po; type: ADME, organism-based; parameters: dose 3 mg/kg, route po; conditions: in vivo
[6] = Oral bioavailability in mouse plasma at 3 mg/kg; type: ADME, organism-based; conditions: in vivo
[7] = Ratio of AUC (0 to infinity) in liver to plasma of mouse at 3 mg/kg,po; type: ADME, organism-based; conditions: read-out: Ratio AUC
[8] = Clearance in human hepatocyte at 2 uM measured upto 120 mins by LC-MS/MS analysis; type: ADME, cell-based; conditions: hepatocytes
[9] = Octanol-water partition coefficient, logD of the compound at pH 7.4; type: physicochemical
[10] = Volume of distribution at steady state in Wistar Han rat at 2 mg/kg,iv by LC-MS/MS analysis; type: ADME, organism-based; conditions: in vivo, read-out: Vdss
[11] = Half life in minipig at 2 mg/kg,iv by LC-MS/MS analysis; type: ADME, organism-based, Sus scrofa domesticus; conditions: pig, in vivo
[12] = Cmax in male Wistar Han rat at 3 mg/kg,po by LC-MS/MS analysis; type: ADME, organism-based; parameters: dose 3 mg/kg, route po; conditions: in vivo
[13] = Cmax in male Wistar Han rat at 10 mg/kg,po by LC-MS/MS analysis; type: ADME, organism-based; parameters: dose 10 mg/kg, route po; conditions: in vivo
[14] = Cmax in male cynomolgus monkey at 10 mg/kg,po by LC-MS/MS analysis; type: ADME, organism-based, Macaca fascicularis; parameters: dose 10 mg/kg, route po; conditions: in vivo
[15] = Cmax in male minipig at 30 mg/kg,po by LC-MS/MS analysis; type: ADME, organism-based, Sus scrofa domesticus; parameters: dose 30 mg/kg, route po; conditions: pig, in vivo
[16] = Cmax in female Wistar Han rat at 30 mg/kg,po by LC-MS/MS analysis; type: ADME, organism-based; parameters: dose 30 mg/kg, route po; conditions: in vivo
[17] = Cmax in female minipig at 30 mg/kg,po by LC-MS/MS analysis; type: ADME, organism-based, Sus scrofa domesticus; parameters: dose 30 mg/kg, route po; conditions: pig, in vivo
[18] = Tmax in male Wistar Han rat at 3 mg/kg,po by LC-MS/MS analysis; type: ADME, organism-based; conditions: in vivo
[19] = Tmax in male Wistar Han rat at 30 mg/kg,po by LC-MS/MS analysis; type: ADME, organism-based; conditions: in vivo
[20] = Tmax in male cynomolgus monkey at 10 mg/kg,po by LC-MS/MS analysis; type: ADME, organism-based, Macaca fascicularis; conditions: in vivo
[21] = Tmax in male minipig at 3 mg/kg,po by LC-MS/MS analysis; type: ADME, organism-based, Sus scrofa domesticus; conditions: pig, in vivo
[22] = Tmax in female cynomolgus monkey at 3 mg/kg,po by LC-MS/MS analysis; type: ADME, organism-based, Macaca fascicularis; conditions: in vivo
[23] = Half life in male Wistar Han rat at 3 mg/kg,po by LC-MS/MS analysis; type: ADME, organism-based; conditions: in vivo
[24] = Half life in male Wistar Han rat at 10 mg/kg,po by LC-MS/MS analysis; type: ADME, organism-based; conditions: in vivo
[25] = Half life in male cynomolgus monkey at 10 mg/kg,po by LC-MS/MS analysis; type: ADME, organism-based, Macaca fascicularis; conditions: in vivo
[26] = Half life in male cynomolgus monkey at 30 mg/kg,po by LC-MS/MS analysis; type: ADME, organism-based, Macaca fascicularis; conditions: in vivo
[27] = Half life in male minipig at 30 mg/kg,po by LC-MS/MS analysis; type: ADME, organism-based, Sus scrofa domesticus; conditions: pig, in vivo
[28] = Half life in female Wistar Han rat at 3 mg/kg,po by LC-MS/MS analysis; type: ADME, organism-based; conditions: in vivo
[29] = Half life in female cynomolgus monkey at 10 mg/kg,po by LC-MS/MS analysis; type: ADME, organism-based, Macaca fascicularis; conditions: in vivo
[30] = Half life in female minipig at 10 mg/kg,po by LC-MS/MS analysis; type: ADME, organism-based, Sus scrofa domesticus; conditions: pig, in vivo
[31] = Half life in female minipig at 30 mg/kg,po by LC-MS/MS analysis; type: ADME, organism-based, Sus scrofa domesticus; conditions: pig, in vivo
[32] = AUClast in male minipig at 3 mg/kg,po by LC-MS/MS analysis; type: ADME, organism-based, Sus scrofa domesticus; parameters: dose 3 mg/kg, route po; conditions: pig, in vivo
[33] = AUClast in male minipig at 30 mg/kg,po by LC-MS/MS analysis; type: ADME, organism-based, Sus scrofa domesticus; parameters: dose 30 mg/kg, route po; conditions: pig, in vivo
[34] = AUClast in female Wistar Han rat at 3 mg/kg,po by LC-MS/MS analysis; type: ADME, organism-based; parameters: dose 3 mg/kg, route po; conditions: in vivo
[35] = AUClast in female Wistar Han rat at 10 mg/kg,po by LC-MS/MS analysis; type: ADME, organism-based; parameters: dose 10 mg/kg, route po; conditions: in vivo
[36] = AUClast in female Wistar Han rat at 30 mg/kg,po by LC-MS/MS analysis; type: ADME, organism-based; parameters: dose 30 mg/kg, route po; conditions: in vivo
[37] = AUClast in female cynomolgus monkey at 30 mg/kg,po by LC-MS/MS analysis; type: ADME, organism-based, Macaca fascicularis; parameters: dose 30 mg/kg, route po; conditions: in vivo
[38] = Oral bioavailability in male Wistar Han rat at 30 mg/kg by LC-MS/MS analysis; type: ADME, organism-based; conditions: in vivo
[39] = Oral bioavailability in male cynomolgus monkey at 10 mg/kg by LC-MS/MS analysis; type: ADME, organism-based, Macaca fascicularis; conditions: in vivo
[40] = Oral bioavailability in male cynomolgus monkey at 30 mg/kg by LC-MS/MS analysis; type: ADME, organism-based, Macaca fascicularis; conditions: in vivo
[41] = Oral bioavailability in male minipig at 3 mg/kg by LC-MS/MS analysis; type: ADME, organism-based, Sus scrofa domesticus; conditions: pig, in vivo
[42] = Oral bioavailability in male minipig at 10 mg/kg by LC-MS/MS analysis; type: ADME, organism-based, Sus scrofa domesticus; conditions: pig, in vivo
[43] = Oral bioavailability in male minipig at 30 mg/kg by LC-MS/MS analysis; type: ADME, organism-based, Sus scrofa domesticus; conditions: pig, in vivo
[44] = Oral bioavailability in female Wistar Han rat at 30 mg/kg by LC-MS/MS analysis; type: ADME, organism-based; conditions: in vivo
[45] = Oral bioavailability in female cynomolgus monkey at 10 mg/kg by LC-MS/MS analysis; type: ADME, organism-based, Macaca fascicularis; conditions: in vivo
[46] = Oral bioavailability in female minipig at 10 mg/kg by LC-MS/MS analysis; type: ADME, organism-based, Sus scrofa domesticus; conditions: pig, in vivo
Cytochrome P450 1A2 = target: T1, Cytochrome P450 1A2 (Homo sapiens, UniProt P05177); assay: Inhibition of CYP1A2 (unknown origin); type: ADME
T1 sequence (P05177 whole entry): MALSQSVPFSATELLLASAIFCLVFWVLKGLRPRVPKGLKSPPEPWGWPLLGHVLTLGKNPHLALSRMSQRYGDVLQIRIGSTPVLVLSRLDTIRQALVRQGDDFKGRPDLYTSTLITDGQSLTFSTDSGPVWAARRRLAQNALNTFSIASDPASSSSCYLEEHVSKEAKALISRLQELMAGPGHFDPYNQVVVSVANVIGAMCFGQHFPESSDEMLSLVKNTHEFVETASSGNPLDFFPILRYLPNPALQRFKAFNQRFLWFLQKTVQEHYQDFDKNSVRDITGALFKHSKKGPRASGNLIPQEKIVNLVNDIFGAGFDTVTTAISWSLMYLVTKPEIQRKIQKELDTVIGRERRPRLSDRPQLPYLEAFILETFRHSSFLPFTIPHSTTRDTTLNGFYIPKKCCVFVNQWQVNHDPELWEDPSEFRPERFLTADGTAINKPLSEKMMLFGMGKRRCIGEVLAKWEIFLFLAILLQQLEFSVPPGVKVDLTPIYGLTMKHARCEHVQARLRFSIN

[47] = Toxicity in minipig assessed as NOAEL administrated upto 28 days; parameters: species or system Sus scrofa domesticus; conditions: pig, in vivo; time < 28 day

Sequence of Cytochrome P450 3A4 (P08684 whole entry): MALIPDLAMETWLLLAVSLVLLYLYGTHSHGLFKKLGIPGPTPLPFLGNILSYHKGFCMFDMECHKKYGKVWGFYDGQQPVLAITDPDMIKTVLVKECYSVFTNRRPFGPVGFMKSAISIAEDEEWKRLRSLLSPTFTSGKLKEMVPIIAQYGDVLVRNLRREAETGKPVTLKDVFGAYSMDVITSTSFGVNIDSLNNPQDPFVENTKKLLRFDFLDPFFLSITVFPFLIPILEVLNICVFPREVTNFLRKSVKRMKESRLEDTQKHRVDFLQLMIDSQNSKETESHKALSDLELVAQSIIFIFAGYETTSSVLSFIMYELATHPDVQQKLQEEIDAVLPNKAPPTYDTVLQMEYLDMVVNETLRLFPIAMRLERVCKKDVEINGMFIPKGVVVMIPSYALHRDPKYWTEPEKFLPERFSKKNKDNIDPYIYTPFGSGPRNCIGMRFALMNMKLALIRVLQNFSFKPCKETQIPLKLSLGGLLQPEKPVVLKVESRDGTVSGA

bioavailability [1]: 10.6% | IC50 (Cytochrome P450 3A4): > 50 µM | Vd [2]: 1 L/kg | AUC [3]: 837 ng·h/mL | AUC(0-inf) [4]: 70 ng·h/mL | AUC [5]: 275 ng·h/mL | F [6]: 33% | Kp [7]: 32 | CLhep predicted at 2 µM [8]: 5.6 mL/min/kg | logD [9]: 1.75 | Vd [10]: 1.34 L/kg | half-life [11]: 2.19 h | Cmax [12]: 70.2 ng/mL | Cmax [13]: 512 ng/mL | Cmax [14]: 298 ng/mL | Cmax [15]: 768 ng/mL | Cmax [16]: 3310 ng/mL | Cmax [17]: 429 ng/mL | Tmax [18]: 0.5 h | Tmax [19]: 1 h | Tmax [20]: 2 h | Tmax [21]: 0.5 h | Tmax [22]: 0.25 h | half-life [23]: 1.87 h | half-life [24]: 1.43 h | half-life [25]: 6.64 h | half-life [26]: 6.12 h | half-life [27]: 7.64 h | half-life [28]: 2.15 h | half-life [29]: 8.13 h | half-life [30]: 9.7 h | half-life [31]: 8.26 h | AUC(0-t) [32]: 228 ng·h/mL | AUC(0-t) [33]: 4150 ng·h/mL | AUC(0-t) [34]: 220 ng·h/mL | AUC(0-t) [35]: 1970 ng·h/mL | AUC(0-t) [36]: 17800 ng·h/mL | AUC(0-t) [37]: 3150 ng·h/mL | bioavailability [38]: 50% | bioavailability [39]: 15.8% | bioavailability [40]: 25.8% | bioavailability [41]: 12.6% | bioavailability [42]: 18.6% | bioavailability [43]: 20.6% | bioavailability [44]: 105% | bioavailability [45]: 18.2% | bioavailability [46]: 11.4% | IC50 (Cytochrome P450 1A2): > 50 µM
SMILES: CCOC(=O)C1=C(CN2CCN3C(=O)N(CC(C)(C)C(=O)O)C[C@@H]3C2)NC(c2nccs2)=N[C@H]1c1cccc(F)c1C [LINVENCORVIR]
NOAEL at 672 h [47]: 350 mg/kg

Reference: ChEMBL document CHEMBL5316357, “Discovery of Linvencorvir (RG7907), a Hepatitis B Virus Core Protein Allosteric Modulator, for the Treatment of Chronic HBV Infection” (J Med Chem, 2023)
